Drawing on ChEMBL document CHEMBL1201862, “PubChem BioAssay data set” (2004), this text covers EC50 and AC50 for 54 molecules.

Series [1] can be described thus: inhibitors of intracellular T. cruzi replication, confirmation, NIH3T3 host cells, beta-gal luminescence (AID 2044).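 Note: intracellular parasites grown in NIH/3T3 mouse fibroblasts as host cells; luminescent beta-galactosidase reporter signal from transgenic T. cruzi replicating inside host cells; inhibitors lower the luminescence signal.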 In kind it is functional, cell-based.
Series [2] in a line: cytotoxicity toward NIH3T3 fibroblasts, dose response, counter-screen, cell-based, ATP luminescence, mouse fibroblasts (AID 2010).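 Note: cells exposed to compound for about 90 hours before reading.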 In kind it is functional. For orientation: A counterscreen serves to expose hits that act by an unwanted route or on another target.
The target of a further series is Cytochrome P450 2C19 (Homo sapiens, UniProt P33261). As to the kind of experiment: Cytochrome panel assay with activity outcomes. Panel member name: p450-cyp2c19 Compounds with AC50 equal or less than 10 uM are considered active. In kind it is functional.
In another series the target is Cytochrome P450 3A4 (Homo sapiens, UniProt P08684).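 Note: CYP3A4 tested as one member of a cytochrome P450 panel screen.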
Series [3] deals with T1, Heat shock factor protein 1 (Mus musculus, UniProt P38532).
T1 sequence (P38532 whole entry): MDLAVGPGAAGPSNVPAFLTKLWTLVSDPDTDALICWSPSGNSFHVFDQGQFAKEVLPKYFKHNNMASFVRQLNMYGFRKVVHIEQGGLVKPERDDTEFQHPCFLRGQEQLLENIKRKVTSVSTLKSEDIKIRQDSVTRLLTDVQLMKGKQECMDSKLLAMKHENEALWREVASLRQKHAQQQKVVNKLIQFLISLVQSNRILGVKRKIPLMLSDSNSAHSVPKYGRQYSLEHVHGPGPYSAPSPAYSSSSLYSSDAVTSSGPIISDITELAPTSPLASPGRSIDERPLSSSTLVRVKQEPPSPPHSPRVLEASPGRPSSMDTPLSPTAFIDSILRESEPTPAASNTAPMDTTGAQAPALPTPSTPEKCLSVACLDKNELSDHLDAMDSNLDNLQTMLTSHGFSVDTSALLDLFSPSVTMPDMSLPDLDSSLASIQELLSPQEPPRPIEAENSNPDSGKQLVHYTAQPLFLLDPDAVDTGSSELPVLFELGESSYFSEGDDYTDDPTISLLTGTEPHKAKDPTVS
In words: inhibition of MG132-induced HSE-luciferase signal, confirmation, cell-based, NIH3T3, luminescence, dose retest (AID 2382).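 Note: NIH3T3 fibroblasts with HSF1-driven luciferase reporter stressed by proteasome inhibitor MG132; luminescence from HSF1-driven luciferase expression after 8 hours of MG132 stress.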 Type of series: functional.

The nature of series [4]: inhibitors of firefly luciferase expression or activity, dose response, H4 neuroglioma cells, luminescence (AID 1990). In kind it is functional, cell-based.
Series [5] in a line: Luminescence Cell-Based Dose Response HTS to Identify Inhibitors of 5'UTR Stem-Loop Driven Prion Protein mRNA Translation in H4 Neuroglioblastoma Cells. [Related pubchem assays: 1827 (Project Summary), 1813 (Primary HTS)]. In kind it is functional.
Series [6] can be described thus: inhibitors of SNCA 5'UTR-driven reporter translation, confirmation, H4 neuroglioma cells, luminescence (AID 1988). Type of series: functional, cell-based.

The source made the active and inactive calls.

Sequence of Cytochrome P450 2C19 (P33261 whole entry): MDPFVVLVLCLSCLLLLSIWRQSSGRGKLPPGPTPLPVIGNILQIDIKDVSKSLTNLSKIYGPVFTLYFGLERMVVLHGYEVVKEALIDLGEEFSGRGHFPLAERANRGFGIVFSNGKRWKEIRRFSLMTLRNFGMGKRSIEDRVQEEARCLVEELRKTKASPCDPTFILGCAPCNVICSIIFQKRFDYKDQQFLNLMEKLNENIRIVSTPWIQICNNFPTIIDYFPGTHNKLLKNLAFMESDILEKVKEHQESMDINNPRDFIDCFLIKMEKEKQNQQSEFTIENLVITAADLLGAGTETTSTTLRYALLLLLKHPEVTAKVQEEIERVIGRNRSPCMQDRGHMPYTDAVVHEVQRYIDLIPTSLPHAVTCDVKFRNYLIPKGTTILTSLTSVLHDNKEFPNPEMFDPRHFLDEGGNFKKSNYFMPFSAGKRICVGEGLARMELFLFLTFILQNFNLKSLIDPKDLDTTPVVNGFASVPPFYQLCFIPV
Sequence of Cytochrome P450 3A4 (P08684 whole entry): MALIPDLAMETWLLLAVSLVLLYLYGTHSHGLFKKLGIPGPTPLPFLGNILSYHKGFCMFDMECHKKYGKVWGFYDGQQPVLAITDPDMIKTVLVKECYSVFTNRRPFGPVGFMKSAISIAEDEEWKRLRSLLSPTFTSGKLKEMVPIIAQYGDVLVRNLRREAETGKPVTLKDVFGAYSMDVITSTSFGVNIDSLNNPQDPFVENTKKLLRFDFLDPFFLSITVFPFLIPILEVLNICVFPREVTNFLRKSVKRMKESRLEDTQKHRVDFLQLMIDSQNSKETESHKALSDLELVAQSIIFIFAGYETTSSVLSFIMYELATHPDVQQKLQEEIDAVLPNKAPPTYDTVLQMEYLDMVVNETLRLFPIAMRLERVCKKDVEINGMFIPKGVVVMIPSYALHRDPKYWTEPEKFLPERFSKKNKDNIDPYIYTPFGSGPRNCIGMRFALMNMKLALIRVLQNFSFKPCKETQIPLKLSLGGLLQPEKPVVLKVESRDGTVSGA

In the case of `Oc1nc(CN2CCN(C/C=C/c3ccccc3)CC2)nc2cc(Cl)ccc12`, the EC50 is 0.405 µM (active) in series [1] and > 60 µM (not active) in series [2]. With `CC(=O)C1=C(O)C=C(c2ccco2)CC1c1ccco1` (stereo not drawn), the AC50 was 2.24 µM (inconclusive) at Cytochrome P450 2C19 (read-out: AC50) and 20 µM (inconclusive) on Cytochrome P450 3A4. On to `CCOc1cc(OCC)cc(C(=O)O)c1`, for which the EC50 in series [3] is listed as > 195 µM (not active).

Take `CC(=O)c1[nH]c(C)c(C(C)=O)c1C`: on Cytochrome P450 3A4, the AC50 was 20 µM (inconclusive). `Cc1ccc(N2C(=O)c3ccccc3NC2C(C)Cc2ccc3c(c2)OCO3)cc1` (stereo not drawn): the values for the EC50 in series [1] and in series [2] were 2.61 µM (active) and > 30 µM (not active), respectively.

As for `Cc1ccc(N(C)C(=O)CN(C)S(=O)(=O)c2ccc3c(c2)n(C)c(=O)c(=O)n3C)cc1`, in series [3], the EC50 is > 195 µM (not active). On to `O=C1[C@H]2[C@H]3[C@H](O)[C@H](O)C/C(=N/OC[C@@H](O)COCc4ccco4)[C@@H]3CC[C@@H]2C(=O)N1c1cccc(Oc2ccccc2)c1`, for which, on Cytochrome P450 3A4, the AC50 was 7.94 µM (inconclusive). With `COc1ccc(/C=C2\CCCC3C2=NN(C(=O)COC(=O)CNC(=O)c2ccccc2)C3c2ccc(OC)cc2)cc1` (stereo not drawn), in series [3], the EC50 is recorded as > 195 µM (not active). The same measure, in the same setting: as for `COc1cccc2cc(C(=O)NCc3ccco3)/c(=N/c3ccc(C(=O)O)cc3)oc12`, the figure is > 195 µM (not active). With `S=C(Nc1ccc(Br)cc1Cl)NC1CCN(Cc2ccccc2)CC1`, the figures for the EC50 in series [1] and in series [2] were 0.228 µM (active) and > 30 µM (not active), respectively. As to `Cc1ccc(-c2nnn(CC(=O)N(Cc3cccs3)C(C(=O)NC3CCCC3)c3ccncc3)n2)cc1` (stereo not drawn), the EC50 in series [3] is on record as > 195 µM (not active). Turning to `CC(C)(C)OC(=O)N1CCN(C(=O)c2[nH]cnc2C(=O)NCC(=O)OCc2ccccc2)CC1`, in series [3], the EC50 was > 195 µM (not active). Regarding `O=[N+]([O-])c1ccccc1/C=N/n1c(S)nnc1COc1ccccc1`, the concentration at half-maximal activity (AC50) at Cytochrome P450 2C19 (read-out: AC50) is 11.2 µM (inconclusive). For `CC(CCCC(C)(C)O)NC(=O)c1ccc2oc(CCc3ccccc3)nc2c1` (stereo not drawn), the 50% effective concentration (EC50) in series [3] was > 195 µM (not active). Regarding `N#CCn1c2ccccc2c2nc3ccccc3nc21`, the EC50 in series [4] is 23.3 µM (active); in series [5], > 120 µM (not active); in series [6], > 120 µM (not active). Take `O=C(c1ccc(SCc2cccc(Br)c2)c([N+](=O)[O-])c1)N1CCN(c2ccccn2)CC1`: the EC50 was 2.08 µM (active) in series [1] and > 60 µM (not active) in series [2]. Regarding `COC(=O)C1=C(C)N(CCc2c[nH]c3ccc(OC)cc23)C(=O)C1`, the EC50 in series [4], in series [5] and in series [6] was > 120 µM (not active) throughout. For `C/C(=N\Nc1nnc(-c2ccccc2)c(-c2ccccc2)n1)c1cccc([N+](=O)[O-])c1`, the AC50 at Cytochrome P450 2C19 (read-out: AC50) is 17.8 µM (inconclusive); on Cytochrome P450 3A4 it was 35.5 µM (inconclusive). As to `COc1ccc(CN2CC(=O)N(c3ccc(C)c(C)c3)C2=S)cc1OC`, the values for the EC50 in series [4], in series [5] and in series [6] were 21.3 µM (active), > 120 µM (not active) and 20.4 µM (active), respectively. For `O=C(/C=C/c1ccccc1)NC(=S)N1CCSCC1`, in series [3], the EC50 was > 195 µM (not active).

`COC(=O)C1=CN(Cc2ccc(OC)c(OC)c2)C=C(C(=O)OC)C1c1cccc(F)c1`: the half-maximal effective concentration (EC50) in series [4] was 15.1 µM (active); in series [5], > 120 µM (not active); in series [6] it was 65.7 µM (active); in series [1], 0.156 µM (active); in series [2], > 60 µM (not active). As to `C=CCOc1ccc(/C=C/C(=O)OCC(=O)NCC2CCCCC2)cc1`, the EC50 in series [3] is > 195 µM (not active). In the case of `COc1ccc(OC)c(C2CC(=O)Nc3[nH]nc(-c4ccccc4)c32)c1` (stereo not drawn), the 50% effective concentration (EC50) in series [4], in series [5] and in series [6] was > 120 µM (not active) in each case. Take `COc1ccc(C(=O)NCc2nnc(SCC(=O)N3CCC(C)CC3)o2)cc1OC`: the EC50 in series [3] is recorded as > 195 µM (not active). As for `CC1CCCC(C)N1CC(O)COCC1COc2ccccc2O1.Cl` (stereo not drawn), the AC50 entry at Cytochrome P450 2C19 is on record as “inconclusive”.

With `C/C(=N\CCc1c(C)[nH]c2ccc(OCc3ccccc3)cc12)C1=C(O)CC(c2ccccc2)CC1=O` (stereo not drawn), the results for the concentration for a half-maximal effect (EC50) in series [1] and in series [2] were 2.1 µM (active) and > 60 µM (not active), respectively. As to `COc1cccc(-n2c(SCC(=O)Nc3sc4c(c3C(N)=O)CCC4)nc3ccccc3c2=O)c1`, the EC50 in series [1] is 2.9 µM (active); in series [2], > 60 µM (not active). In the case of `CSCC[C@H](NC(=O)CC(C)(C)C)c1nc2ccccc2[nH]1`, the concentration at half-maximal activity (AC50) at Cytochrome P450 3A4 was 15.8 µM (inconclusive). Take `Cc1cc(CN2CCN(CCC#N)CC2)c(O)c(C2(C)CCCCC2)c1`: the EC50 was 1.1 µM (active) in series [1] and > 60 µM (not active) in series [2].

With `Cc1ccc(S(=O)(=O)c2c(C)cc(C)nc2Cl)c(C)c1`, the results for the concentration for a half-maximal effect (EC50) in series [1] and in series [2] were 2 µM (active) and > 60 µM (not active), respectively. Turning to `Cc1cccc(C)c1NC(=O)c1cc2c(=O)c3ccccc3oc2nc1C(F)(F)F`, the AC50 result on Cytochrome P450 2C19 was “inconclusive”; on Cytochrome P450 3A4 it was 0.0501 µM (inconclusive). Consider `CO[C@@H]1COC(=O)CCC[C@@H](C)[C@H](OC)COC(=O)[C@H](Cc2ccccc2)NC(=O)C/C=C\[C@H]1C`, for which the AC50 at Cytochrome P450 2C19 (read-out: AC50) is 0.00251 µM (inconclusive). As for `CCOC(=O)c1ccc(-c2c(-c3cc(OC)c(OC)c(OC)c3)noc2C)cc1F`, the half-maximal effective concentration (EC50) was 9.94 µM (inconclusive) in series [4], 11.4 µM (active) in series [5] and 1.43 µM (active) in series [6].

On to `COc1ccc(C(=O)N2CCC3(CCCN(CC(C)C)C3)CC2)cc1`, for which the AC50 on Cytochrome P450 3A4 is 25.1 µM (inconclusive). The same measure, in the same setting: as for `O=C(Cc1ccccc1)NCCSCc1ccc(Cl)cc1`, the figure is 14.1 µM (inconclusive). On to `COc1ccc(CN(CC2CCC(C(=O)O)CC2)C(=S)Nc2ccc(C)c(Cl)c2)cc1` (stereo not drawn), for which the 50% effective concentration (EC50) in series [1] and in series [2] was > 60 µM (not active) each time. Turning to `Oc1ccc(OCc2ccccc2)cc1` [MONOBENZONE], the AC50 on Cytochrome P450 2C19 (read-out: AC50) is 6.31 µM (inconclusive). Consider `O=C(Nc1nc(-c2ccccc2)cs1)C1CCCCN1S(=O)(=O)c1ccc(Cl)cc1` (stereo not drawn), for which the 50% effective concentration (EC50) was 2.22 µM (active) in series [1] and > 60 µM (not active) in series [2]. Turning to `CCn1c(SCC(=O)Nc2nc(C)c(C)s2)nnc1-c1cccnc1`, the EC50 in series [4], in series [5] and in series [6] was > 120 µM (not active) throughout. For `CN1CC[C@@]2(CCCN(C(=O)c3cccn3C)C2)C1`, the AC50 on Cytochrome P450 3A4 is 7.94 µM (inconclusive). With `COc1ccc(C)cc1S(=O)(=O)Nc1cc2c3c(c1)CCC(=O)N3CCC2`, in series [3], the EC50 is reported as > 195 µM (not active). With `CCOC(=O)CCCNC(=O)CCCNC(=O)C(c1ccccc1)c1ccccc1`, the AC50 at Cytochrome P450 2C19 (read-out: AC50) is 14.1 µM (inconclusive); on Cytochrome P450 3A4, 8.91 µM (inconclusive).

Turning to `Cc1ccc([N+](=O)[O-])c(OCCCN2CCC(Cc3ccccc3)CC2)c1`, the EC50 in series [3] is listed as > 195 µM (not active).

As to `O=C(Nc1c2c(nn1-c1ccc(F)cc1)CS(=O)(=O)C2)C12CC3CC(CC(C3)C1)C2`, the AC50 result on Cytochrome P450 2C19 is recorded as “inconclusive”. With `CCc1cc2c(nc1CC)CCN(CC/C(C)=N/OC[C@@H](C)[C@H](OCc1ccccc1)C(C)C)C2`, on Cytochrome P450 3A4, the AC50 is 3.98 µM (inconclusive).

Turning to `Nc1nc(NC(=O)C(Cl)(Cl)Cl)nn1-c1ccccc1`, the EC50 in series [3] is listed as > 195 µM (not active). As to `CC(C)c1cccc2cc3c(nc12)-c1cccc(=O)n1C3`, at Cytochrome P450 2C19 (read-out: AC50), the AC50 was 39.8 µM (inconclusive). For the molecule `Nc1cc(Cl)ccc1Oc1ccccc1`, the concentration at half-maximal activity (AC50) on Cytochrome P450 3A4 is 22.4 µM (inconclusive). On to `Cn1cccc1C(=O)N1CCC2(CCCN(C(=O)Nc3ccccc3)C2)CC1`, for which the AC50 at Cytochrome P450 3A4 is 31.6 µM (inconclusive). Consider `Cc1ccc(-c2nnc(N3CCN(C(=O)c4cccs4)CC3)c3ccccc23)cc1`, for which the EC50 is > 120 µM (not active) in series [4], > 120 µM (not active) in series [5] and 22 µM (active) in series [6]. With `COC(=O)c1ccc(COc2cccc3c2CCN(Cc2cccc(C)c2)C3=O)o1`, the EC50 in series [4] was > 120 µM (not active); in series [5] it was > 120 µM (not active); in series [6], 107 µM (active). Turning to `CCOC(=O)Cc1cnc(NC(=O)c2ccccc2)s1`, in series [3], the EC50 was > 195 µM (not active). Regarding `CCOc1c(C)cc(S(=O)(=O)NCc2cccnc2)c(C)c1C`, the EC50 in series [3] was > 195 µM (not active).

`COc1cc(OC)c(OC)cc1/C=N/NC(=S)NCC1CCCO1` (stereo not drawn): the EC50 in series [3] was > 195 µM (not active).

By EC50 is commonly meant the concentration at which the effect is half-maximal. Usually AC50 stands for the concentration at which the activity in the assay is half-maximal.
